Measurements from the NIST ThermoML archive (doi:10.1021/acs.jced.6b00536).
Where “and” joins values, the source holds several entries; their conditions need not be identical. Equal values may be shown once.

Details: Gas, Frequency=0.05 MHz, Single path-length method

FC(F)(F)C(F)(F)F [hexafluoroethane]
Details | speed of sound
250.8 K, 68.9 kPa | 127.66 m/s
250.8 K, 77.3 kPa | 127.49 m/s
250.8 K, 95 kPa | 127.13 m/s
250.8 K, 108.8 kPa | 126.85 m/s
250.8 K, 128.5 kPa | 126.44 m/s
250.8 K, 149.2 kPa | 126.04 m/s
250.8 K, 169.4 kPa | 125.61 m/s
250.8 K, 177.2 kPa | 125.45 m/s
250.8 K, 195.4 kPa | 125.08 m/s
250.8 K, 211.5 kPa | 124.74 m/s
250.8 K, 225.5 kPa | 124.44 m/s
256.2 K, 70.4 kPa | 128.95 m/s
256.2 K, 78.9 kPa | 128.78 m/s
256.2 K, 97 kPa | 128.43 m/s
256.2 K, 111.1 kPa | 128.17 m/s
256.2 K, 131.3 kPa | 127.77 m/s
256.2 K, 152.5 kPa | 127.38 m/s
256.2 K, 173.1 kPa | 126.97 m/s
256.2 K, 181.1 kPa | 126.82 m/s
256.2 K, 199.7 kPa | 126.45 m/s
256.2 K, 216.2 kPa | 126.14 m/s
256.2 K, 230.6 kPa | 125.83 m/s
261.5 K, 71.8 kPa | 130.24 m/s
261.5 K, 80.5 kPa | 130.09 m/s
261.5 K, 99 kPa | 129.73 m/s
261.5 K, 113.4 kPa | 129.49 m/s
261.5 K, 134.1 kPa | 129.1 m/s
261.5 K, 155.7 kPa | 128.71 m/s
261.5 K, 176.8 kPa | 128.32 m/s
261.5 K, 185 kPa | 128.19 m/s
261.5 K, 204 kPa | 127.83 m/s
261.5 K, 221 kPa | 127.51 m/s
261.5 K, 235.7 kPa | 127.24 m/s
266.8 K, 73.3 kPa | 131.5 m/s
266.8 K, 82.1 kPa | 131.33 m/s
266.8 K, 101.1 kPa | 131.02 m/s
266.8 K, 115.7 kPa | 130.77 m/s
266.8 K, 136.8 kPa | 130.41 m/s
266.8 K, 158.9 kPa | 130.04 m/s
266.8 K, 180.5 kPa | 129.65 m/s
266.8 K, 188.9 kPa | 129.52 m/s
266.8 K, 208.3 kPa | 129.18 m/s
266.8 K, 225.6 kPa | 128.87 m/s
266.8 K, 240.8 kPa | 128.62 m/s
272.1 K, 74.7 kPa | 132.77 m/s
272.1 K, 83.7 kPa | 132.62 m/s
272.1 K, 103.1 kPa | 132.3 m/s
272.1 K, 118 kPa | 132.05 m/s
272.1 K, 139.6 kPa | 131.72 m/s
272.1 K, 162.1 kPa | 131.35 m/s
272.1 K, 184.3 kPa | 131.01 m/s
272.1 K, 192.8 kPa | 130.85 m/s
272.1 K, 212.6 kPa | 130.53 m/s
272.1 K, 230.5 kPa | 130.23 m/s
272.1 K, 246.8 kPa | 129.96 m/s
277.4 K, 76.2 kPa | 134.03 m/s
277.4 K, 85.4 kPa | 133.89 m/s
277.4 K, 105.1 kPa | 133.57 m/s
277.4 K, 120.4 kPa | 133.33 m/s
277.4 K, 142.3 kPa | 132.99 m/s
277.4 K, 165.4 kPa | 132.66 m/s
277.4 K, 188 kPa | 132.3 m/s
277.4 K, 196.7 kPa | 132.17 m/s
277.4 K, 216.9 kPa | 131.84 m/s
277.4 K, 235.2 kPa | 131.58 m/s
277.4 K, 251.8 kPa | 131.3 m/s
282.7 K, 77.6 kPa | 135.27 m/s
282.7 K, 87 kPa | 135.13 m/s
282.7 K, 107.1 kPa | 134.83 m/s
282.7 K, 122.7 kPa | 134.61 m/s
282.7 K, 145.1 kPa | 134.28 m/s
282.7 K, 168.6 kPa | 133.93 m/s
282.7 K, 191.6 kPa | 133.6 m/s
282.7 K, 200.5 kPa | 133.47 m/s
282.7 K, 221.3 kPa | 133.16 m/s
282.7 K, 239.9 kPa | 132.89 m/s
282.7 K, 256.9 kPa | 132.64 m/s
287.9 K, 79.1 kPa | 136.49 m/s
287.9 K, 88.6 kPa | 136.37 m/s
287.9 K, 109.1 kPa | 136.08 m/s
287.9 K, 125 kPa | 135.85 m/s
287.9 K, 147.9 kPa | 135.54 m/s
287.9 K, 171.8 kPa | 135.21 m/s
287.9 K, 195.4 kPa | 134.9 m/s
287.9 K, 204.4 kPa | 134.76 m/s
287.9 K, 225.6 kPa | 134.47 m/s
287.9 K, 244.5 kPa | 134.2 m/s
287.9 K, 262 kPa | 133.96 m/s
293.2 K, 80.5 kPa | 137.71 m/s
293.2 K, 85.4 kPa | 137.65 m/s
293.2 K, 90.3 kPa | 137.61 m/s
293.2 K, 111.1 kPa | 137.3 m/s and 137.31 m/s
293.2 K, 127.3 kPa | 137.08 m/s and 137.09 m/s
293.2 K, 150.6 kPa | 136.79 m/s and 136.8 m/s
293.2 K, 175 kPa | 136.48 m/s
293.2 K, 175.1 kPa | 136.49 m/s
293.2 K, 199 kPa | 136.16 m/s
293.2 K, 203.7 kPa | 136.09 m/s
293.2 K, 208.3 kPa | 136.06 m/s
293.2 K, 229.9 kPa | 135.75 m/s and 135.74 m/s
293.2 K, 249.1 kPa | 135.49 m/s
293.2 K, 249.2 kPa | 135.5 m/s
293.2 K, 265.6 kPa | 135.26 m/s
293.2 K, 267 kPa | 135.26 m/s
298.5 K, 82 kPa | 138.94 m/s
298.5 K, 91.9 kPa | 138.8 m/s
298.5 K, 113.1 kPa | 138.55 m/s
298.5 K, 129.7 kPa | 138.33 m/s
298.5 K, 153.4 kPa | 138.03 m/s
298.5 K, 178.3 kPa | 137.71 m/s
298.5 K, 202.8 kPa | 137.42 m/s
298.5 K, 212.2 kPa | 137.32 m/s
298.5 K, 234.2 kPa | 137.02 m/s
298.5 K, 253.9 kPa | 136.77 m/s
298.5 K, 272 kPa | 136.54 m/s
303.7 K, 83.4 kPa | 140.14 m/s
303.7 K, 93.5 kPa | 140.03 m/s
303.7 K, 115.2 kPa | 139.76 m/s
303.7 K, 132 kPa | 139.56 m/s
303.7 K, 156.2 kPa | 139.26 m/s
303.7 K, 181.5 kPa | 138.98 m/s
303.7 K, 206.4 kPa | 138.67 m/s
303.7 K, 216.1 kPa | 138.57 m/s
303.7 K, 238.5 kPa | 138.3 m/s
303.7 K, 258.6 kPa | 138.06 m/s
303.7 K, 277.2 kPa | 137.85 m/s
308.9 K, 84.9 kPa | 141.33 m/s
308.9 K, 95.1 kPa | 141.19 m/s
308.9 K, 117.2 kPa | 140.94 m/s
308.9 K, 134.2 kPa | 140.73 m/s
308.9 K, 158.9 kPa | 140.47 m/s
308.9 K, 184.7 kPa | 140.18 m/s
308.9 K, 210.1 kPa | 139.9 m/s
308.9 K, 219.9 kPa | 139.79 m/s
308.9 K, 242.8 kPa | 139.54 m/s
308.9 K, 263.3 kPa | 139.32 m/s
308.9 K, 282.1 kPa | 139.06 m/s
314.1 K, 86.3 kPa | 142.49 m/s
314.1 K, 96.8 kPa | 142.38 m/s
314.1 K, 119.2 kPa | 142.15 m/s
314.1 K, 136.6 kPa | 141.94 m/s
314.1 K, 161.6 kPa | 141.69 m/s
314.1 K, 187.9 kPa | 141.4 m/s
314.1 K, 213.8 kPa | 141.12 m/s
314.1 K, 223.7 kPa | 140.99 m/s
314.1 K, 247.1 kPa | 140.76 m/s
314.1 K, 267.9 kPa | 140.53 m/s
314.1 K, 287.2 kPa | 140.33 m/s
319.3 K, 87.7 kPa | 143.67 m/s
319.3 K, 98.4 kPa | 143.57 m/s
319.3 K, 121.2 kPa | 143.32 m/s
319.3 K, 138.9 kPa | 143.13 m/s
319.3 K, 164.4 kPa | 142.88 m/s
319.3 K, 191.2 kPa | 142.61 m/s
319.3 K, 217.5 kPa | 142.34 m/s
319.3 K, 227.6 kPa | 142.24 m/s
319.3 K, 251.3 kPa | 141.97 m/s
319.3 K, 272.7 kPa | 141.78 m/s
319.3 K, 292.2 kPa | 141.56 m/s
324.5 K, 89.2 kPa | 144.83 m/s
324.5 K, 100 kPa | 144.71 m/s
324.5 K, 123.2 kPa | 144.49 m/s
324.5 K, 141.2 kPa | 144.31 m/s
324.5 K, 167.2 kPa | 144.07 m/s
324.5 K, 194.4 kPa | 143.8 m/s
324.5 K, 221.2 kPa | 143.52 m/s
324.5 K, 231.5 kPa | 143.44 m/s
324.5 K, 255.7 kPa | 143.2 m/s
324.5 K, 277.3 kPa | 142.99 m/s
324.5 K, 297.1 kPa | 142.79 m/s
